According to patent US20240246967A1, “AXL COMPOUNDS” (ARCUS BIOSCIENCES, INC., priority 2021, published 2024):

Each compound was assayed against T1, Axl (Homo sapiens, UniProt P30530) (assay: Axl NanoBRET intracellular kinase assay (intracellular binding, Cell Binding)). Conditions: HEK-293 cells transfected with Axl-NanoLuc fusion vector; 0.35 μM K-5 NanoBRET tracer.
T1 sequence (P30530 26-894): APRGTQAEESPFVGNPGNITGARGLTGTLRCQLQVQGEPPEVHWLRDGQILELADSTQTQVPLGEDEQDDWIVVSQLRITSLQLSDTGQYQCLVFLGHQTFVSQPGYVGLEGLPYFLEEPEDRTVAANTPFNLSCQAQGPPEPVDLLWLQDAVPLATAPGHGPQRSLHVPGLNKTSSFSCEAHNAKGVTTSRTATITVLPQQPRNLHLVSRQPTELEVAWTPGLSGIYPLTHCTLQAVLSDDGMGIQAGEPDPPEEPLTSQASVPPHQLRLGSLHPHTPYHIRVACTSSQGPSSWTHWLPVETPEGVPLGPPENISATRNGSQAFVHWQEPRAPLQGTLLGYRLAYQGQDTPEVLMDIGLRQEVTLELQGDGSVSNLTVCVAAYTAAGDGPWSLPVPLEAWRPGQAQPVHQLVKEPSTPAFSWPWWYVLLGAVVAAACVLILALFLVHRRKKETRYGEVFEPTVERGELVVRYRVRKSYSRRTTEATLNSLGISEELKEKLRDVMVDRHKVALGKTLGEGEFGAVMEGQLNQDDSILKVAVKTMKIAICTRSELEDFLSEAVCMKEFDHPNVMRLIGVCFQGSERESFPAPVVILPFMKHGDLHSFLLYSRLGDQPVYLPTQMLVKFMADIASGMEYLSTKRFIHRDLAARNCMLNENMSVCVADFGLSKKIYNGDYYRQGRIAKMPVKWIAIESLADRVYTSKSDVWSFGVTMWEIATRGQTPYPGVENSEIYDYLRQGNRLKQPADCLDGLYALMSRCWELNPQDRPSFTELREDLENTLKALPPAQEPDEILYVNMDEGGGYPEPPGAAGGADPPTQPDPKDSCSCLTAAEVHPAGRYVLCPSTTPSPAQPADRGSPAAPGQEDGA
Set-up: host or cells: HEK-293
Outline: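 HEK-293 cells transiently expressing Axl-NanoLuc fusion were pre-incubated with compound for 1 h at 37 °C (0.5% DMSO), then with 0.35 μM K-5 tracer for 2 h. Tracer displacement read as reduced BRET ratio (610/450 nm); IC50 from 4-parameter fit.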

| SMILES | IC50 |
| --- | --- |
| C[C@@H]1CCCN1C1CCc2ccc(-c3cnc4[nH]nc(-c5ccc(C6(O)COC6)c(Cl)c5)c4c3)cc2CC1 (stereo partly drawn) [Example 64, 3-[2-Chloro-4-(5-{7-[(2R)-2-methylpyrrolidin-1-yl]-6,7,8,9-tetrahydro-5H-benzo[7]annulen-2-yl}-1H-pyrazolo[3,4-b]pyridin-3-yl)phenyl]oxetan-3-ol] | > 1 µM |
| Cc1cc2c(cc1-c1cnc3[nH]nc(-c4ccc(C(C)(C)O)c(Cl)c4)c3c1)CCC(N1CCC[C@H]1C)CC2 (stereo partly drawn) [Example 90, 2-[2-Chloro-4-(5-{3-methyl-7-[(2R)-2-methylpyrrolidin-1-yl]-6,7,8,9-tetrahydro-5H-benzo[7]annulen-2-yl}-1H-pyrazolo[3,4-b]pyridin-3-yl)phenyl]propan-2-ol] | 0.1 to 1 µM |
| O=C(c1ccc(-c2n[nH]c3ncc(-c4ccc5c(c4)CC[C@@H](N4CCCC4)CC5)cc23)cc1Cl)N1CCNCC1 [Example 82, (S)-(2-Chloro-4-(5-(7-(pyrrolidin-1-yl)-6,7,8,9-tetrahydro-5H-benzo[7]annulen-2-yl)-1H-pyrazolo[3,4-b]pyridin-3-yl)phenyl)(piperazin-1-yl)methanone] | < 0.1 µM |
| C[C@@H]1CCCN1C1(C)CCc2ccc(-c3cnc4[nH]nc(-c5ccc(C(=O)NC6CCOCC6)cc5)c4c3)cc2CC1 (stereo partly drawn) [Example 88, 4-(5-(7-Methyl-7-((R)-2-methylpyrrolidin-1-yl)-6,7,8,9-tetrahydro-5H-benzo[7]annulen-2-yl)-1H-pyrazolo[3,4-b]pyridin-3-yl)-N-(tetrahydro-2H-pyran-4-yl)benzamide] | < 0.1 µM |
| C[C@@H]1CCCN1C1(C)CCc2ccc(-c3cnc4[nH]nc(-c5ccc(C(N)=O)c(Cl)c5)c4c3)cc2CC1 (stereo partly drawn) [Example 68, 2-Chloro-4-(5-{7-methyl-7-[(2R)-2-methylpyrrolidin-1-yl]-6,7,8,9-tetrahydro-5H-benzo[7]annulen-2-yl}-1H-pyrazolo[3,4-b]pyridin-3-yl)benzamide] | < 0.1 µM |
| COC1CCN(C(=O)c2ccc(-c3n[nH]c4ncc(-c5ccc6c(c5)CCC(C)(N5CCC[C@H]5C)CC6)cc34)cc2)CC1 (stereo partly drawn) [Example 89, (4-Methoxypiperidin-1-yl)(4-(5-(7-methyl-7-((R)-2-methylpyrrolidin-1-yl)-6,7,8,9-tetrahydro-5H-benzo[7]annulen-2-yl)-1H-pyrazolo[3,4-b]pyridin-3-yl)phenyl)methanone] | < 0.1 µM |
| NC(=O)c1ccc(-c2n[nH]c3ncc(-c4ccc5c(c4)CCC(N4CCCC4)CC5)cc23)cc1Cl (centres unmarked) [Example 77, 2-Chloro-4-(5-(7-(pyrrolidin-1-yl)-6,7,8,9-tetrahydro-5H-benzo[7]annulen-2-yl)-1H-pyrazolo[3,4-b]pyridin-3-yl)benzamide] | < 0.1 µM |
| COc1cc(-c2n[nH]c3ncc(-c4ccc5c(c4)CCC(C)(N4CCC[C@H]4C)CC5)cc23)ccc1S(N)(=O)=O (stereo partly drawn) [Example 87, 2-Methoxy-4-(5-(7-methyl-7-((R)-2-methylpyrrolidin-1-yl)-6,7,8,9-tetrahydro-5H-benzo[7]annulen-2-yl)-1H-pyrazolo[3,4-b]pyridin-3-yl)benzenesulfonamide] | 0.1 to 1 µM |
| COC1CCN(C(=O)c2ccc(-c3n[nH]c4ncc(-c5ccc6c(c5)CCC(C)(N5CCC[C@H]5C)CC6)cc34)cc2Cl)CC1 (stereo partly drawn) [Example 67, 1-[2-Chloro-4-(5-{7-methyl-7-[(2R)-2-methylpyrrolidin-1-yl]-6,7,8,9-tetrahydro-5H-benzo[7]annulen-2-yl}-1H-pyrazolo[3,4-b]pyridin-3-yl)benzoyl]-4-methoxypiperidine] | < 0.1 µM |
| NC(=O)c1ccc(-c2n[nH]c3ncc(-c4ccc5c(c4)CC[C@@H](N4CCCC4)CC5)cc23)cc1Cl [Example 84, (S)-2-Chloro-4-(5-(7-(pyrrolidin-1-yl)-6,7,8,9-tetrahydro-5H-benzo[7]annulen-2-yl)-1H-pyrazolo[3,4-b]pyridin-3-yl)benzamide] | < 0.1 µM |

Further lines, results first:

| IC50 | SMILES |
| --- | --- |
| < 0.1 µM | CC1(N2CCC[C@@H]2CO)CCc2ccc(-c3cnc4[nH]nc(-c5ccc(S(=O)(=O)C6CC6)cc5)c4c3)cc2CC1 (stereo partly drawn) [Example 3, [(2R)-1-(2-{3-[4-(Cyclopropanesulfonyl)phenyl]-1H-pyrazolo[3,4-b]pyridin-5-yl}-7-methyl-6,7,8,9-tetrahydro-5H-benzo[7]annulen-7-yl)pyrrolidin-2-yl]methanol] |
| < 0.1 µM | C[C@@H]1CCCN1C1CCc2ccc(-c3cnc4[nH]nc(-c5cnc(C(C)(C)O)c(Cl)c5)c4c3)cc2CC1 (stereo partly drawn) [Example 65, 2-[3-Chloro-5-(5-{7-[(2R)-2-methylpyrrolidin-1-yl]-6,7,8,9-tetrahydro-5H-benzo[7]annulen-2-yl}-1H-pyrazolo[3,4-b]pyridin-3-yl)pyridin-2-yl]propan-2-ol] |
| < 0.1 µM | CCC1(N2CCC[C@@H]2CO)CCc2ccc(-c3cnc4[nH]nc(-c5ccc(C(N)=O)c(Cl)c5)c4c3)cc2CC1 (stereo partly drawn) [Example 74, 2-Chloro-4-(5-{7-ethyl-7-[(2R)-2-(hydroxymethyl)pyrrolidin-1-yl]-6,7,8,9-tetrahydro-5H-benzo[7]annulen-2-yl}-1H-pyrazolo[3,4-b]pyridin-3-yl)benzamide] |
| < 0.1 µM | C[C@@H]1CCCN1C1CCc2ccc(-c3cnc4[nH]nc(-c5ccc(C6(O)CCOC6)c(Cl)c5)c4c3)cc2CC1 (stereo partly drawn) [Example 63, 3-[2-Chloro-4-(5-{7-[(2R)-2-methylpyrrolidin-1-yl]-6,7,8,9-tetrahydro-5H-benzo[7]annulen-2-yl}-1H-pyrazolo[3,4-b]pyridin-3-yl)phenyl]oxolan-3-ol] |
| < 0.1 µM | C[C@@H]1CCCN1C1(C)CCc2ccc(-c3cnc4[nH]nc(-c5ccc(S(=O)(=O)C6CC6)cc5)c4c3)cc2CC1 (stereo partly drawn) [Example 1, 3-(4-(Cyclopropylsulfonyl)phenyl)-5-(7-methyl-7-((R)-2-methylpyrrolidin-1-yl)-6,7,8,9-tetrahydro-5H-benzo[7]annulen-2-yl)-1H-pyrazolo[3,4-b]pyridine] |
| < 0.1 µM | NC(=O)c1ccc(-c2n[nH]c3ncc(-c4ccc5c(c4)CCC(N4CCCC4)CC5)cc23)cc1C(F)(F)F (centres unmarked) [Example 80, 4-(5-(7-(Pyrrolidin-1-yl)-6,7,8,9-tetrahydro-5H-benzo[7]annulen-2-yl)-1H-pyrazolo[3,4-b]pyridin-3-yl)-2-(trifluoromethyl)benzamide] |
| < 0.1 µM | Cc1cc(-c2n[nH]c3ncc(-c4ccc5c(c4)CCC(N4CCCC4)CC5)cc23)cc(F)c1C(N)=O (centres unmarked) [Example 79, 2-Fluoro-6-methyl-4-(5-(7-(pyrrolidin-1-yl)-6,7,8,9-tetrahydro-5H-benzo[7]annulen-2-yl)-1H-pyrazolo[3,4-b]pyridin-3-yl)benzamide] |
| < 0.1 µM | C[C@@H]1CCCN1C1(C)CCc2ccc(-c3cnc4[nH]nc(-c5ccc(S(N)(=O)=O)c(Cl)c5)c4c3)cc2CC1 (stereo partly drawn) [Example 93, 2-Chloro-4-(5-(7-methyl-7-((R)-2-methylpyrrolidin-1-yl)-6,7,8,9-tetrahydro-5H-benzo[7]annulen-2-yl)-1H-pyrazolo[3,4-b]pyridin-3-yl)benzenesulfonamide] |
| < 0.1 µM | CC(C)NC(=O)c1ccc(-c2n[nH]c3ncc(-c4ccc5c(c4)CCC(C)(N4CCC[C@H]4C)CC5)cc23)cc1 (stereo partly drawn) [Example 70, 4-(5-{7-Methyl-7-[(2R)-2-methylpyrrolidin-1-yl]-6,7,8,9-tetrahydro-5H-benzo[7]annulen-2-yl}-1H-pyrazolo[3,4-b]pyridin-3-yl)-N-(propan-2-yl)benzamide] |
| < 0.1 µM | C[C@@H]1CCCN1C1(C)CCc2ccc(-c3cnc4[nH]nc(-c5ccc(C(=O)NC6CC6)cc5)c4c3)cc2CC1 (stereo partly drawn) [Example 69, N-Cyclopropyl-4-(5-{7-methyl-7-[(2R)-2-methylpyrrolidin-1-yl]-6,7,8,9-tetrahydro-5H-benzo[7]annulen-2-yl}-1H-pyrazolo[3,4-b]pyridin-3-yl)benzamide] |
| < 0.1 µM | NS(=O)(=O)c1ccc(-c2n[nH]c3ncc(-c4ccc5c(c4)CC[C@@H](N4CCCC4)CC5)cc23)cc1Cl [Example 91, (S)-2-Chloro-4-(5-(7-(pyrrolidin-1-yl)-6,7,8,9-tetrahydro-5H-benzo[7]annulen-2-yl)-1H-pyrazolo[3,4-b]pyridin-3-yl)benzenesulfonamide] |
| < 0.1 µM | CCC1(N2CCC[C@H]2CO)CCc2ccc(-c3cnc4[nH]nc(-c5ccc(C(N)=O)c(Cl)c5)c4c3)cc2CC1 (stereo partly drawn) [Example 75, 2-Chloro-4-(5-{7-ethyl-7-[(2S)-2-(hydroxymethyl)pyrrolidin-1-yl]-6,7,8,9-tetrahydro-5H-benzo[7]annulen-2-yl}-1H-pyrazolo[3,4-b]pyridin-3-yl)benzamide] |
| < 0.1 µM | Cc1cc(-c2n[nH]c3ncc(-c4ccc5c(c4)CC[C@@H](N4CCCC4)CC5)cc23)cc(F)c1C(N)=O [Example 83, (S)-2-Fluoro-6-methyl-4-(5-(7-(pyrrolidin-1-yl)-6,7,8,9-tetrahydro-5H-benzo[7]annulen-2-yl)-1H-pyrazolo[3,4-b]pyridin-3-yl)benzamide] |
